Laboratory results from patent US20060069132A1, “Azolecarboxamide herbicides” (priority 2004, published 2006).

Legend:
ducksalad = test: Test B flooded paddy test; assay type: in vivo, Heteranthera limosa; details: 1000 g ai/ha, visual rating, scale 0 to 100 (0 no effect, 100 complete control), 13 to 15 days
Outline: (§1)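 Paddy species grown to the 2-leaf stage under flooding; blackgrass sprayed postemergence at 2–18 cm (1- to 4-leaf stage). Plants kept in a greenhouse for 13 to 15 days, then visually rated against controls on 0 (no effect) to 100 (complete control).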

barnyardgrass [1] = test: Test B pre-/postemergence herbicide test; assay type: in vivo, Echinochloa crus-galli; details: for Barnyardgrass plant response rating: postemergence, scale 0 (no effect) to 100 (complete control)
Outline: (§2)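 Test chemicals in a non-phytotoxic solvent mixture with surfactant were applied preemergence to seeded species and postemergence to plants 2-18 cm tall (1- to 4-leaf stage); rice and barnyardgrass were also tested in a flooded paddy at the 2-leaf stage. Visual rating versus controls after 13-15 days in greenhouse, scale 0 (no effect) to 100 (complete control).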

Surinam grass = test: Test B pre-/postemergence herbicide test; assay type: in vivo, Urochloa decumbens; details: for Surinam Grass plant response rating: postemergence, scale 0 (no effect) to 100 (complete control)
Outline: (§3)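 Response was scored visually 13 to 15 days after treatment against untreated greenhouse controls, 0 meaning no effect and 100 complete control. Formulations (solvent mixture plus surfactant) went onto soil after planting, onto foliage of 1- to 4-leaf plants, and onto 2-leaf plants in a flooded paddy set including rice and barnyardgrass.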

rice [2] = test: Test B pre-/postemergence herbicide test; assay type: in vivo, Oryza sativa; details: 0 = no effect, 100 = complete control, preemergence
Text: Seeds selected from barnyardgrass (Echinochloa crus-galli (L.) Beauv.), Surinam grass (Urochloa decumbens (Staph) R. D. Webster, previously named Brachiaria decumbens Stapf), cocklebur (Xanthium strumarium L.), corn (Zea mays L.), large crabgrass (Digitaria sanguinalis (L.) Scop.), giant foxtail (Setaria faberi Herim.), lambsquarters (Chenopodium album L.), morningglory (Ipomoea coccinea L.), pigweed (Amaranthus retroflexus L.), rice (Oryza sativa L.) and velvetleaf (Abutilon theophrasti Medik.) were planted and treated preemergence with test chemicals formulated in a non-phytotoxic solvent mixture which included a surfactant.
At the same time, plants selected from these crop and weed species and also blackgrass (Alopecurus myosuroides Huds.), wheat (Triticum aestivum L.) and wild oat (Avena fatua L.) were treated with postemergence applications of test chemicals formulated in the same manner. Plants ranged in height from 2 to 18 cm (1- to 4-leaf stage) for postemergence treatments. Plant species in the flooded paddy test consisted of rice (Oryza sativa L.), small flower umbrella sedge (Cyperus difformis L.), ducksalad (Heteranthera limosa (Sw.) Willd.) and barnyardgrass (Echinochloa crus-galli (L.) Beauv.) grown to the 2-leaf stage for testing. Treated plants and controls were maintained in a greenhouse for 13 to 15 days, after which time all species were compared to controls and visually evaluated. Plant response ratings, summarized in Table B, are based on a scale of 0 to 100 where 0 is no effect and 100 is complete control. A dash (-) response means no test result.

large crabgrass = test: Test B pre-/postemergence herbicide test; assay type: in vivo, Digitaria sanguinalis; details: for Crabgrass, Large plant response rating: postemergence, scale 0 (no effect) to 100 (complete control)
Outline: as §3

barnyardgrass [3] = test: Test B flooded paddy test; assay type: in vivo, Echinochloa crus-galli; details: 1000 g ai/ha, visual rating, scale 0 to 100 (0 no effect, 100 complete control), 13 to 15 days
Outline: as §1

pigweed = test: Test B pre-/postemergence herbicide test; assay type: in vivo, Amaranthus retroflexus; details: for Pigweed plant response rating: postemergence, scale 0 (no effect) to 100 (complete control)
Outline: as §3

corn = test: Test B pre-/postemergence herbicide test; assay type: in vivo, Zea mays; details: for Corn plant response rating: postemergence, scale 0 (no effect) to 100 (complete control)
Outline: as §3

lambsquarters = test: Test B pre-/postemergence herbicide test; assay type: in vivo, Chenopodium album; details: for Lambsquarters plant response rating: postemergence, scale 0 (no effect) to 100 (complete control)
Outline: as §3

rice [4] = test: Test B flooded paddy test; assay type: in vivo, Oryza sativa; details: 1000 g ai/ha, visual rating, scale 0 to 100 (0 no effect, 100 complete control), 13 to 15 days
Outline: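 Postemergence plants were sprayed with formulated test chemicals at 2 to 18 cm height (1- to 4-leaf stage); paddy species were grown to the 2-leaf stage. After 13 to 15 days in a greenhouse, injury was rated visually against untreated controls on a 0–100 scale (0 = no effect, 100 = complete control).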

cocklebur = test: Test B pre-/postemergence herbicide test; assay type: in vivo, Xanthium strumarium; details: for Cocklebur plant response rating: postemergence, scale 0 (no effect) to 100 (complete control)
Outline: as §2

blackgrass = test: Test B postemergence herbicide test; assay type: in vivo, Alopecurus myosuroides; details: postemergence, visual rating, scale 0 (no effect) to 100 (complete control)
Outline: as §1

velvetleaf = test: Test B pre-/postemergence herbicide test; assay type: in vivo, Abutilon theophrasti; details: for Velvetleaf plant response rating: postemergence, scale 0 (no effect) to 100 (complete control)
Outline: as §3

wild oat = test: Test B postemergence herbicide test; assay type: in vivo, Avena fatua; details: postemergence, visual rating, scale 0 (no effect) to 100 (complete control)
Outline: (§4)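 Greenhouse test; postemergence application to plants at 1–4 leaves (2–18 cm); paddy species at 2 leaves; evaluated visually vs controls at 13–15 days; scale 0–100 (100 = complete control).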

wheat = test: Test B postemergence herbicide test; assay type: in vivo, Triticum aestivum; design: key to Wheat plant response rating: 0 = no effect, 100 = complete control; details: postemergence, visual rating, scale 0 (no effect) to 100 (complete control)
Outline: as §4

giant foxtail = test: Test B pre-/postemergence herbicide test; assay type: in vivo, Setaria faberi; details: for Foxtail, Giant plant response rating: postemergence, scale 0 (no effect) to 100 (complete control)
Outline: as §3

morningglory = test: Test B pre-/postemergence herbicide test; assay type: in vivo, Ipomoea coccinea; details: for Morningglory plant response rating: postemergence, scale 0 (no effect) to 100 (complete control)
Outline: as §2

[5] = 125 g ai/ha, 0 = no effect, 100 = complete control, preemergence
[6] = 500 g ai/ha, visual rating, 0 = no effect, 100 = complete control, preemergence

Compound: CCc1nc(C(C)(C)C)sc1C(=O)Nc1cc(C(=O)N(CC)CC)ccc1F [Compound 230]
- Ducksalad plant response rating (ducksalad): 60
- Barnyardgrass plant response rating (0 to 100 scale) (barnyardgrass [1]; [5]): 10
- Plant response rating, Barnyardgrass (barnyardgrass [1]; [6]): 50
- Barnyardgrass plant response rating (barnyardgrass [1]; 125 g ai/ha, visual rating): 0
- Barnyardgrass plant response rating (barnyardgrass [1]; 500 g ai/ha, visual rating): 20
- Surinam Grass plant response rating (0 to 100 scale) (Surinam grass; [5]): 0
- Plant response rating, Surinam Grass (Surinam grass; [6]): 10
- Surinam Grass plant response rating (Surinam grass; 125 g ai/ha, visual rating): 10
- Surinam Grass plant response rating (Surinam grass; 500 g ai/ha, visual rating): 10
- Rice plant response rating (0 to 100 scale) (rice [2]; 125 g ai/ha): 0
- Plant response rating, Rice (rice [2]; 500 g ai/ha, visual rating): 0
- Crabgrass, Large plant response rating (0 to 100 scale) (large crabgrass; [5]): 20
- Plant response rating, Crabgrass, Large (large crabgrass; [6]): 70
- Crabgrass, Large plant response rating (large crabgrass; 125 g ai/ha, visual rating): 10
- Crabgrass, Large plant response rating (large crabgrass; 500 g ai/ha, visual rating): 20
- Barnyardgrass plant response rating (barnyardgrass [3]): 50
- Pigweed plant response rating (0 to 100 scale) (pigweed; [5]): 40
- Plant response rating, Pigweed (pigweed; [6]): 80
- Pigweed plant response rating (pigweed; 125 g ai/ha, visual rating): 40
- Pigweed plant response rating (pigweed; 500 g ai/ha, visual rating): 60
- Corn plant response rating (0 to 100 scale) (corn; [5]): 0
- Plant response rating, Corn (corn; [6]): 10
- Corn plant response rating (corn; 125 g ai/ha, visual rating): 10
- Corn plant response rating (corn; 500 g ai/ha, visual rating): 20
- Lambsquarters plant response rating (0 to 100 scale) (lambsquarters; [5]): 20
- Plant response rating, Lambsquarters (lambsquarters; [6]): 90
- Lambsquarters plant response rating (lambsquarters; 125 g ai/ha, visual rating): 50
- Lambsquarters plant response rating (lambsquarters; 500 g ai/ha, visual rating): 60
- Rice plant response rating (rice [4]): 60
- Cocklebur plant response rating (0 to 100 scale) (cocklebur; [5]): 0
- Plant response rating, Cocklebur (cocklebur; [6]): 0
- Cocklebur plant response rating (cocklebur; 125 g ai/ha, visual rating): 0
- Cocklebur plant response rating (cocklebur; 500 g ai/ha, visual rating): 10
- Blackgrass plant response rating (blackgrass; 125 g ai/ha): 30
- Blackgrass plant response rating (blackgrass; 500 g ai/ha): 30
- Velvetleaf plant response rating (0 to 100 scale) (velvetleaf; [5]): 10
- Plant response rating, Velvetleaf (velvetleaf; [6]): 30
- Velvetleaf plant response rating (velvetleaf; 125 g ai/ha, visual rating): 20
- Velvetleaf plant response rating (velvetleaf; 500 g ai/ha, visual rating): 30
- Oat, Wild plant response rating (wild oat; 125 g ai/ha): 20
- Oat, Wild plant response rating (wild oat; 500 g ai/ha): 40
- Wheat plant response rating (wheat; 125 g ai/ha): 10
- Wheat plant response rating (wheat; 500 g ai/ha): 20
- Foxtail, Giant plant response rating (0 to 100 scale) (giant foxtail; [5]): 10
- Plant response rating, Foxtail, Giant (giant foxtail; [6]): 80
- Foxtail, Giant plant response rating (giant foxtail; 125 g ai/ha, visual rating): 10
- Foxtail, Giant plant response rating (giant foxtail; 500 g ai/ha, visual rating): 20
- Morningglory plant response rating (0 to 100 scale) (morningglory; [5]): 10
- Plant response rating, Morningglory (morningglory; [6]): 10
- Morningglory plant response rating (morningglory; 125 g ai/ha, visual rating): 20
- Morningglory plant response rating (morningglory; 500 g ai/ha, visual rating): 70
